Entries after “also recorded” stand apart in the source; their conditions may differ.
Assays:
human fibroblast cells [1] = test: Collagen production by fibroblast cells; assay type: cell-based; conditions: treated vs control cells
Excerpt: (§1) Experiments generally following the methodology of Boote et al., Biochimica et Biophysica Acta, Volume 607, pages 145-160 (1980), have shown that while control human fibroblast cells have copious collagen production, treatment with the compounds of the invention provides human fibroblast cells with suppressed collagen production and with an about 30% increase in elastin production over control cells.
(§2) Wrinkling of the skin involves the decreased formation of elastin and the increased formation of collagen by supporting cells, predominantly the fibroblasts.

human fibroblast cells [2] = test: Elastin production by fibroblast cells; assay type: cell-based
Excerpt: as §1, §2

[3] = tested on: estrogen receptor (keloid cytosol); test: Keloid cytosol steroid binding assay, estrogen; design: species or system human

Molecule | collagen production/formation (human fibroblast cells [1]) | formation of elastin (human fibroblast cells [2]; Example 45) | increase in elastin production over control cells (human fibroblast cells [2]; treated vs control (non-treated) fibroblast cells) [%] | estrogen binding, male patients ([3]; male patients) | Binding of Estrogen ([3]; patient 1) | Binding of Estrogen ([3]; patient 2)
CCOC(CC)CCCCC1CCC2CC(=O)CC12 (stereo not drawn) [Compound VI, 2-(5-ethoxyhept-1-yl)bicyclo[3.3.0]octan-7-one] | decrease in collagen production; also recorded: decreased | massive observable increase in the formation of elastin | ~30 |  |  | 
Estrogen |  |  |  | neither detectable | 9 | 4
